pIC50: −log10 of the molar value.
Key:
NIH3T3 = assay: MTT cytotoxicity assay (Example 1); assay type: cell-based, mouse; conditions: Mus musculus, NIH3T3, 72 h
From the text: (§1) Human breast cancer cells MDA-MB-435 were purchased from the American Type Culture Collection (Manassas, Va.). The HCT116 p53+/+ and HCT116 p53−/− cells were kindly provided by Dr. Bert Vogelstein (Johns Hopkins Medical Institutions, Baltimore, Md.). The human ovarian carcinoma cell line (HEY) which is naturally resistant to cisplatin, was kindly provided by Dr. Louis Dubeau, University of Southern California (USC) Norris Cancer Center, and NIH3T3 normal mouse fibroblast cells were kindly provided by Dr. Michael Press from USC. HEY and NIH3T3 cells were maintained as monolayer cultures in RPMI, HCT 116 cells in McCoy1s5A media and MDA-MB 435 in DMEM. Media were purchased from (Mediatech, Virginia) and supplemented with 10% fetal bovine serum (Gemini-Bioproducts, Woodland, Calif.), 2 mM L-glutamine and 5% Penicillin/streptomycin from Bio whittaker were purchased from VWR. Cells were incubated at 37° C. in a humidified atmosphere of 5% CO2. To remove the adherent cells from the flask for passaging and counting, cells were washed with PBS without calcium or magnesium, incubated with a small volume of 0.25% trypsin-EDTA solution (Sigma-Aldrich, St. Louis, Mo.) for 5-10 min, and washed with culture medium and centrifuged. All experiments were performed using cells at exponential growth stage. Cells were routinely checked for mycoplasma contamination using a PCR-based assay (Stratagene, Tex., USA).
(§2) Stock solutions (10 mM) of all compounds were prepared in DMSO and stored at −20° C. Further dilutions were made fresh in PBS or cell-culture media right before cell treatment.
(§3) Cytotoxicity was assessed by a 3-(4,s-dimethylthiazol-2-yl)-2,5-diphenyltetrazolium bromide (MTT) assay as previously described.^24 Briefly, cells were seeded in 96-well microtiter plates and allowed to attach overnight. Cells were subsequently treated with continuous exposure to the corresponding drug for 72 h. A MTT solution (at a final concentration of 0.5 mglml) was added to each well, and cells were incubated for 4 h at 37° C. After removal of the medium, DMSO was added and the absorbance was read at 570 nm. All assays were done in triplicate. The IC50 was then determined for each drug from a plot of log (drug concentration) versus percentage of cells killed.

HCT116 p53−/− = assay: MTT cytotoxicity assay (Example 1); assay type: cell-based; conditions: for pIC50: MTT, 72 h
From the text: as §1, §2, §3

HCT116 p53+/+ = assay: MTT cytotoxicity assay (Example 1); assay type: cell-based; conditions: for pIC50: MTT, 72 h
From the text: as §1, §2, §3

[1] = test system: panel of cancer cell lines; assay: MTT cytotoxicity, panel of cancer cell lines (Example 1); assay type: cell-based; conditions: other selected cells, dose up to 10.0 μM
From the text: as §1, with “To remove the adherent cells from the flask for passaging and counting, cells were washed with PBS without calcium or magnesium, incubated with a small volume of 0.25% trypsin-EDTA solution (Sigma-Aldrich, St. Louis, Mo.) for 5-10 min, and washed with culture medium and centrifuged. All experiments were performed using cells at exponential growth stage. Cells were routinely checked for mycoplasma contamination using a PCR-based assay (Stratagene, Tex., USA).” left out
Cytotoxicity was assessed by a 3-(4,s-dimethylthiazol-2-yl)-2,5-diphenyltetrazolium bromide (MTT) assay as previously described.^24 Briefly, cells were seeded in 96-well microtiter plates and allowed to attach overnight. […] After removal of the medium, DMSO was added and the absorbance was read at 570 nm. […] The IC50 was then determined for each drug from a plot of log (drug concentration) versus percentage of cells killed.

HEY = assay: MTT cytotoxicity assay (Example 1); assay type: cell-based, human; conditions: 72 h
From the text: as §1, §2, §3

MDA-MB-435 = assay: MTT cytotoxicity assay (Example 1); assay type: cell-based, human; conditions: Homo sapiens, MDA-MB-435, 72 h
From the text: as §1, §2, §3

Cc1cccc(Nc2nc3nonc3nc2NN=Cc2ccc(-c3ccccc3Cl)o2)c1C [Compound 19]
pIC50 (NIH3T3): < 5.00 | toxicity (HCT116 p53−/−): toxic | pIC50 (HCT116 p53−/−; Homo sapiens, HCT-116, 72 h): 5.22 | pIC50 (HCT116 p53−/−): 5.40 | toxicity (HCT116 p53+/+): toxic | pIC50 (HCT116 p53+/+; Homo sapiens, HCT-116, 72 h): 5.52 | pIC50 (HCT116 p53+/+): 5.70 | toxicity [1]: not toxic | pIC50 (HEY): 5.30 | pIC50 (HEY; Homo sapiens): 5.52 | pIC50 (MDA-MB-435): < 5.00

Source: patent US8445677B2, “Substituted pyrimidyl guanidine derivatives having anticancer activity” (University of Southern California, priority 2008, dated 2013)
